Patent US11807644B2 (PMV Pharmaceuticals, Inc., priority 2020, dated 2023)

Target: T1, recombinant His-tag Y220C p53 DBD protein (Homo sapiens, UniProt P04637, Y220C)
T1 construct: recombinant His-tag Y220C p53 DBD protein (amino acids #˜94-312)
Experiment: In vitro DNA binding activity assay (TR-FRET): binding of His-tag Y220C p53 DBD to biotin-labeled consensus DNA
Type: biochemical
Conditions: SC150 = concentration to increase DNA binding by […], His-tag Y220C p53 DBD, biotin-labeled consensus DNA

Row | Compound | Y220C SC150 (μM)
1 | CN1CC[C@@H](Nc2cccc3c2cc(-c2noc(CNC(=O)c4ccc(N(C)C)cc4)n2)n3CC(F)(F)F)[C@@H](F)C1 [Compound 220B, 4-(dimethylamino)-N-{[3-(4-{[(3S,4R)-3-fluoro-1-methylpiperidin-4-yl]amino}-1-(2,2,2-trifluoroethyl)-1H-indol-2-yl)-1,2,4-oxadiazol-5-yl]methyl}benzamide] | * (* = 0 μM ≤ SC150 < 0.1 μM)
2 | CN1CC[C@@H](Nc2cccc3c2cc(-c2noc(CNS(=O)(=O)c4ccccc4)n2)n3CC(F)(F)F)[C@@H](F)C1 [Compound 221B, N-{[3-(4-{[(3S,4R)-3-fluoro-1-methylpiperidin-4-yl]amino}-1-(2,2,2-trifluoroethyl)-1H-indol-2-yl)-1,2,4-oxadiazol-5-yl]methyl}benzenesulfonamide] | ** (** = 0.1 μM ≤ SC150 < 0.5 μM)
3 | CN1CC[C@@H](Nc2cccc3c2cc(-c2noc(CNC(=O)C4CCC4)n2)n3CC(F)(F)F)[C@@H](F)C1 [Compound 222B, N-{[3-(4-{[(3S,4R)-3-fluoro-1-methylpiperidin-4-yl]amino}-1-(2,2,2-trifluoroethyl)-1H-indol-2-yl)-1,2,4-oxadiazol-5-yl]methyl}cyclobutanecarboxamide] | * (* = 0 μM ≤ SC150 < 0.1 μM)
4 | CN1CC[C@@H](Nc2cccc3c2cc(-c2noc(CNC(=O)[C@H]4C[C@@H](C)C4)n2)n3CC(F)(F)F)[C@@H](F)C1 [Compound 223B, (1r,3s)-N-{[3-(4-{[(3S,4R)-3-fluoro-1-methylpiperidin-4-yl]amino}-1-(2,2,2-trifluoroethyl)-1H-indol-2-yl)-1,2,4-oxadiazol-5-yl]methyl}-3-methylcyclobutane-1-carboxamide] | * (* = 0 μM ≤ SC150 < 0.1 μM)
5 | CN1CC[C@@H](Nc2cccc3c2cc(-c2noc(CNC(=O)[C@@H]4C[C@H]4c4ccccc4F)n2)n3CC(F)(F)F)[C@@H](F)C1 [Compound 224B, (1R,2R)-N-{[3-(4-{[(3S,4R)-3-fluoro-1-methylpiperidin-4-yl]amino}-1-(2,2,2-trifluoroethyl)-1H-indol-2-yl)-1,2,4-oxadiazol-5-yl]methyl}-2-(2-fluorophenyl)cyclopropane-1-carboxamide] | * (* = 0 μM ≤ SC150 < 0.1 μM)
6 | CN1CC[C@@H](Nc2cccc3c2cc(-c2noc(CNC(=O)[C@@H]4C[C@H]4c4cnn(C)c4)n2)n3CC(F)(F)F)[C@@H](F)C1 [Compound 225B, (1R,2R)-N-{[3-(4-{[(3S,4R)-3-fluoro-1-methylpiperidin-4-yl]amino}-1-(2,2,2-trifluoroethyl)-1H-indol-2-yl)-1,2,4-oxadiazol-5-yl]methyl}-2-(1-methyl-1H-pyrazol-4-yl)cyclopropane-1-carboxamide] | * (* = 0 μM ≤ SC150 < 0.1 μM)
7 | CN1CC[C@@H](Nc2cccc3c2cc(-c2noc(CNC(=O)[C@@H]4C[C@H]4c4ccccn4)n2)n3CC(F)(F)F)[C@@H](F)C1 [Compound 226B, (1R,2R)-N-{[3-(4-{[(3S,4R)-3-fluoro-1-methylpiperidin-4-yl]amino}-1-(2,2,2-trifluoroethyl)-1H-indol-2-yl)-1,2,4-oxadiazol-5-yl]methyl}-2-(pyridin-2-yl)cyclopropane-1-carboxamide] | * (* = 0 μM ≤ SC150 < 0.1 μM)
8 | CN1CC[C@@H](Nc2cccc3c2cc(-c2noc(CNc4cn[nH]c4)n2)n3CC(F)(F)F)[C@@H](F)C1 [Compound 227B, N-[(3S,4R)-3-fluoro-1-methylpiperidin-4-yl]-2-(5-{[(1H-pyrazol-4-yl)amino]methyl}-1,2,4-oxadiazol-3-yl)-1-(2,2,2-trifluoroethyl)-1H-indol-4-amine] | * (* = 0 μM ≤ SC150 < 0.1 μM)
9 | CC(=O)NCc1nc(-c2cc3c(N[C@@H]4CCN(C)C[C@@H]4F)cccc3n2CC(F)(F)F)no1 [Compound 228B, N-{[3-(4-{[(3S,4R)-3-fluoro-1-methylpiperidin-4-yl]amino}-1-(2,2,2-trifluoroethyl)-1H-indol-2-yl)-1,2,4-oxadiazol-5-yl]methyl}acetamide] | * (* = 0 μM ≤ SC150 < 0.1 μM)
10 | CN(C)CCn1ccc(C(=O)NCc2nc(-c3cc4c(N[C@@H]5CCN(C)C[C@@H]5F)cccc4n3CC(F)(F)F)no2)c1 [Compound 229B, 1-[2-(dimethylamino)ethyl]-N-{[3-(4-{[(3S,4R)-3-fluoro-1-methylpiperidin-4-yl]amino}-1-(2,2,2-trifluoroethyl)-1H-indol-2-yl)-1,2,4-oxadiazol-5-yl]methyl}-1H-pyrrole-3-carboxamide] | * (* = 0 μM ≤ SC150 < 0.1 μM)
11 | CN1CC[C@@H](Nc2cccc3c2cc(-c2noc(CNc4ccn[nH]4)n2)n3CC(F)(F)F)[C@@H](F)C1 [Compound 230B, N-[(3S,4R)-3-fluoro-1-methylpiperidin-4-yl]-2-(5-{[(1H-pyrazol-5-yl)amino]methyl}-1,2,4-oxadiazol-3-yl)-1-(2,2,2-trifluoroethyl)-1H-indol-4-amine] | * (* = 0 μM ≤ SC150 < 0.1 μM)

The remaining lines, values ahead:

Row | Y220C SC150 (μM) | Compound
12 | * (* = 0 μM ≤ SC150 < 0.1 μM) | CC(C)n1cnc(C(=O)NCc2nc(-c3cc4c(N[C@@H]5CCN(C)C[C@@H]5F)cccc4n3CC(F)(F)F)no2)c1 [Compound 232B, N-{[3-(4-{[(3S,4R)-3-fluoro-1-methylpiperidin-4-yl]amino}-1-(2,2,2-trifluoroethyl)-1H-indol-2-yl)-1,2,4-oxadiazol-5-yl]methyl}-1-(propan-2-yl)-1H-imidazole-4-carboxamide]
13 | * (* = 0 μM ≤ SC150 < 0.1 μM) | CN1CC[C@@H](Nc2cccc3c2cc(-c2noc(CNC(=O)[C@H]4CC4(C)C)n2)n3CC(F)(F)F)[C@@H](F)C1 [Compound 233B, (1S)-N-{[3-(4-{[(3S,4R)-3-fluoro-1-methylpiperidin-4-yl]amino}-1-(2,2,2-trifluoroethyl)-1H-indol-2-yl)-1,2,4-oxadiazol-5-yl]methyl}-2,2-dimethylcyclopropane-1-carboxamide]
14 | * (* = 0 μM ≤ SC150 < 0.1 μM) | CN1CCN(C[C@@H]2C[C@H]2C(=O)NCc2nc(-c3cc4c(N[C@@H]5CCN(C)C[C@@H]5F)cccc4n3CC(F)(F)F)no2)CC1 [Compound 234B, (1R,2R)-N-{[3-(4-{[(3S,4R)-3-fluoro-1-methylpiperidin-4-yl]amino}-1-(2,2,2-trifluoroethyl)-1H-indol-2-yl)-1,2,4-oxadiazol-5-yl]methyl}-2-[(4-methylpiperazin-1-yl)methyl]cyclopropane-1-carboxamide]
15 | * (* = 0 μM ≤ SC150 < 0.1 μM) | CN1CC[C@@H](Nc2cccc3c2cc(-c2noc(CNC(=O)[C@@H]4C[C@H]4c4cccc(F)c4)n2)n3CC(F)(F)F)[C@@H](F)C1 [Compound 235B, (1R,2R)-N-{[3-(4-{[(3S,4R)-3-fluoro-1-methylpiperidin-4-yl]amino}-1-(2,2,2-trifluoroethyl)-1H-indol-2-yl)-1,2,4-oxadiazol-5-yl]methyl}-2-(3-fluorophenyl)cyclopropane-1-carboxamide]
16 | * (* = 0 μM ≤ SC150 < 0.1 μM) | CN1CC[C@@H](Nc2cccc3c2cc(-c2noc(CNC(=O)c4cn(C)nn4)n2)n3CC(F)(F)F)[C@@H](F)C1 [Compound 236B, N-{[3-(4-{[(3S,4R)-3-fluoro-1-methylpiperidin-4-yl]amino}-1-(2,2,2-trifluoroethyl)-1H-indol-2-yl)-1,2,4-oxadiazol-5-yl]methyl}-1-methyl-1H-1,2,3-triazole-4-carboxamide]
17 | * (* = 0 μM ≤ SC150 < 0.1 μM) | CC(CO)n1ccc(C(=O)NCc2nc(-c3cc4c(N[C@@H]5CCN(C)C[C@@H]5F)cccc4n3CC(F)(F)F)no2)c1 (stereo partly drawn) [Compound 237B, N-{[3-(4-{[(3S,4R)-3-fluoro-1-methylpiperidin-4-yl]amino}-1-(2,2,2-trifluoroethyl)-1H-indol-2-yl)-1,2,4-oxadiazol-5-yl]methyl}-1-(1-hydroxypropan-2-yl)-1H-pyrrole-3-carboxamide]
18 | * (* = 0 μM ≤ SC150 < 0.1 μM) | CN1CC[C@@H](Nc2cccc3c2cc(-c2noc(CNC(=O)c4ccn(CC(=O)O)c4)n2)n3CC(F)(F)F)[C@@H](F)C1 [Compound 238B, 2-[3-({[3-(4-{[(3S,4R)-3-fluoro-1-methylpiperidin-4-yl]amino}-1-(2,2,2-trifluoroethyl)-1H-indol-2-yl)-1,2,4-oxadiazol-5-yl]methyl}carbamoyl)-1H-pyrrol-1-yl]acetic acid]
19 | * (* = 0 μM ≤ SC150 < 0.1 μM) | CN1CC[C@@H](Nc2cccc3c2cc(-c2noc(CNC(=O)[C@@H]4CC4(C)C)n2)n3CC(F)(F)F)[C@@H](F)C1 [Compound 239B, (1R)-N-{[3-(4-{[(3S,4R)-3-fluoro-1-methylpiperidin-4-yl]amino}-1-(2,2,2-trifluoroethyl)-1H-indol-2-yl)-1,2,4-oxadiazol-5-yl]methyl}-2,2-dimethylcyclopropane-1-carboxamide]
20 | * (* = 0 μM ≤ SC150 < 0.1 μM) | CC(C)Cn1ccc(C(=O)NCc2nc(-c3cc4c(N[C@@H]5CCN(C)C[C@@H]5F)cccc4n3CC(F)(F)F)no2)c1 [Compound 240B, N-{[3-(4-{[(3S,4R)-3-fluoro-1-methylpiperidin-4-yl]amino}-1-(2,2,2-trifluoroethyl)-1H-indol-2-yl)-1,2,4-oxadiazol-5-yl]methyl}-1-(2-methylpropyl)-1H-pyrrole-3-carboxamide]
21 | * (* = 0 μM ≤ SC150 < 0.1 μM) | CN1CC[C@@H](Nc2cccc3c2cc(-c2noc(CNC(=O)c4ccn(CC5CC5)c4)n2)n3CC(F)(F)F)[C@@H](F)C1 [Compound 241B, 1-(cyclopropylmethyl)-N-{[3-(4-{[(3S,4R)-3-fluoro-1-methylpiperidin-4-yl]amino}-1-(2,2,2-trifluoroethyl)-1H-indol-2-yl)-1,2,4-oxadiazol-5-yl]methyl}-1H-pyrrole-3-carboxamide]
22 | * (* = 0 μM ≤ SC150 < 0.1 μM) | CN1CC[C@@H](Nc2cccc3c2cc(-c2noc(CNC(=O)c4cccc(N(C)C)c4)n2)n3CC(F)(F)F)[C@@H](F)C1 [Compound 242B, 3-(dimethylamino)-N-{[3-(4-{[(3S,4R)-3-fluoro-1-methylpiperidin-4-yl]amino}-1-(2,2,2-trifluoroethyl)-1H-indol-2-yl)-1,2,4-oxadiazol-5-yl]methyl}benzamide]
